Measurements as given in ChEMBL document CHEMBL3885861, “Open TG-GATES”.

Species on record: Rattus norvegicus
Experiment: Open TG-GATES - Regimen: Single
Type: toxicity, organism-based, Sprague-Dawley
Set-up: regimen Single, gender Male, age 6 weeks
Conditions: in vivo, po, 300 mg/kg, route gavage, dose level Middle; for APTT / Bas / Eos / Fbg / Hb / Ht / Lym / MCH / MCHC / MCV / Mono / Neu / PT / Plat / RBC / Ret / WBC: tissue Blood; for KIDNEY_L / KIDNEY_R / KIDNEY_TOTAL: tissue Kidney; for LIVER: tissue Liver; for A/G / ALP / ALT / AST / BUN / CRE / Ca / Cl / DBIL / GLC / IP / K / LDH / Na / PL / RALB / TBIL / TC / TG / TP / gamma-GTP: tissue Plasma

CCOC(=O)CCC(=O)O[C@H]1[C@H](O[C@@H]2[C@@H](C)[C@H](O[C@H]3C[C@@](C)(OC)[C@@H](O)[C@H](C)O3)[C@@H](C)C(=O)O[C@H](CC)[C@@](C)(O)[C@H](O)[C@@H](C)C(=O)[C@H](C)C[C@@]2(C)O)O[C@H](C)C[C@@H]1N(C)C [ERYTHROMYCIN ETHYLSUCCINATE]
TERMINAL_BW (3 h): 220.4 g | APTT (3 h): 21.7 s | Bas (3 h): 0% | Eos (3 h): 1% | Fbg (3 h): 294.4 mg/dL | Hb (3 h): 12.8 g/dL | Ht (3 h): 38.6% | Lym (3 h): 75.4% | MCH (3 h): 21.2 pg | MCHC (3 h): 33.2% | MCV (3 h): 63.8 fL | Mono (3 h): 2.6% | Neu (3 h): 19.8% | PT (3 h): 15.7 s | Plat (3 h): 123.6 x10_4/uL | RBC (3 h): 606.2 x10_4/ul | Ret (3 h): 7.9% | WBC (3 h): 80.1 x10_2/uL | KIDNEY_L (3 h): 1 g | KIDNEY_R (3 h): 1 g | KIDNEY_TOTAL (3 h): 2.1 g | LIVER (3 h): 10 g | A/G (3 h): 1.2 | ALP (3 h): 1689.6 IU/L | ALT (3 h): 42.4 IU/L | AST (3 h): 74.2 IU/L | BUN (3 h): 11.6 mg/dL | CRE (3 h): 0.2 mg/dL | Ca (3 h): 10.5 mg/dL | Cl (3 h): 103.8 meq/L | DBIL (3 h): 0.004 mg/dL | GLC (3 h): 179 mg/dL | IP (3 h): 9.1 mg/dL | K (3 h): 4.1 meq/L | LDH (3 h): 141 IU/L | Na (3 h): 138.6 meq/L | PL (3 h): 149 mg/dL | RALB (3 h): 2.9 g/dL | TBIL (3 h): 0.026 mg/dL | TC (3 h): 76.4 mg/dL | TG (3 h): 66.4 mg/dL | TP (3 h): 5.3 g/dL | gamma-GTP (3 h): 1 IU/L | TERMINAL_BW (6 h): 216.3 g | APTT (6 h): 22.3 s | Bas (6 h): 0% | Eos (6 h): 0.8% | Fbg (6 h): 318.4 mg/dL | Hb (6 h): 13.1 g/dL | Ht (6 h): 39.8% | Lym (6 h): 77.8% | MCH (6 h): 20.8 pg | MCHC (6 h): 32.8% | MCV (6 h): 63.5 fL | Mono (6 h): 3.8% | Neu (6 h): 16.4% | PT (6 h): 15.7 s | Plat (6 h): 115 x10_4/uL | RBC (6 h): 627.8 x10_4/ul | Ret (6 h): 8.7% | WBC (6 h): 87.9 x10_2/uL | KIDNEY_L (6 h): 1 g | KIDNEY_R (6 h): 1 g | KIDNEY_TOTAL (6 h): 2 g | LIVER (6 h): 9.2 g | A/G (6 h): 1.2 | ALP (6 h): 1767.2 IU/L | ALT (6 h): 43.4 IU/L | AST (6 h): 72.8 IU/L | BUN (6 h): 10.8 mg/dL | CRE (6 h): 0.2 mg/dL | Ca (6 h): 10.6 mg/dL | Cl (6 h): 104 meq/L | DBIL (6 h): 0 mg/dL | GLC (6 h): 180 mg/dL | IP (6 h): 10.1 mg/dL | K (6 h): 4.2 meq/L | LDH (6 h): 160.2 IU/L | Na (6 h): 138.2 meq/L | PL (6 h): 140 mg/dL | RALB (6 h): 2.9 g/dL | TBIL (6 h): 0.032 mg/dL | TC (6 h): 75.6 mg/dL | TG (6 h): 50.6 mg/dL | TP (6 h): 5.4 g/dL | gamma-GTP (6 h): 1.2 IU/L | TERMINAL_BW (9 h): 210.5 g | APTT (9 h): 22.3 s | Bas (9 h): 0% | Eos (9 h): 1.2% | Fbg (9 h): 318.4 mg/dL | Hb (9 h): 13.4 g/dL | Ht (9 h): 40.5% | Lym (9 h): 79% | MCH (9 h): 20.8 pg | MCHC (9 h): 33% | MCV (9 h): 62.9 fL | Mono (9 h): 2.6% | Neu (9 h): 15.8% | PT (9 h): 15.6 s | Plat (9 h): 125.3 x10_4/uL | RBC (9 h): 645.4 x10_4/ul | Ret (9 h): 8% | WBC (9 h): 77.8 x10_2/uL | KIDNEY_L (9 h): 1 g | KIDNEY_R (9 h): 1 g | KIDNEY_TOTAL (9 h): 2 g | LIVER (9 h): 8.8 g | A/G (9 h): 1.2 | ALP (9 h): 1386.8 IU/L | ALT (9 h): 33.8 IU/L | AST (9 h): 62.6 IU/L | BUN (9 h): 10 mg/dL | CRE (9 h): 0.2 mg/dL | Ca (9 h): 10.5 mg/dL | Cl (9 h): 105.2 meq/L | DBIL (9 h): 0 mg/dL | GLC (9 h): 174.4 mg/dL | IP (9 h): 9.4 mg/dL | K (9 h): 4.2 meq/L | LDH (9 h): 170.6 IU/L | Na (9 h): 138.8 meq/L | PL (9 h): 136 mg/dL | RALB (9 h): 3 g/dL | TBIL (9 h): 0.03 mg/dL | TC (9 h): 75.2 mg/dL | TG (9 h): 49.8 mg/dL | TP (9 h): 5.5 g/dL | gamma-GTP (9 h): 1.2 IU/L | TERMINAL_BW (24 h): 226.7 g | APTT (24 h): 20.4 s | Bas (24 h): 0% | Eos (24 h): 1% | Fbg (24 h): 319.8 mg/dL | Hb (24 h): 13.7 g/dL | Ht (24 h): 41.1% | Lym (24 h): 85% | MCH (24 h): 21.1 pg | MCHC (24 h): 33.4% | MCV (24 h): 63.3 fL | Mono (24 h): 2.4% | Neu (24 h): 10.8% | PT (24 h): 16 s | Plat (24 h): 117.1 x10_4/uL | RBC (24 h): 649.4 x10_4/ul | Ret (24 h): 7% | WBC (24 h): 88.2 x10_2/uL | KIDNEY_L (24 h): 1 g | KIDNEY_R (24 h): 1 g | KIDNEY_TOTAL (24 h): 2 g | LIVER (24 h): 9.8 g | A/G (24 h): 1.2 | ALP (24 h): 1484 IU/L | ALT (24 h): 37.4 IU/L | AST (24 h): 69.6 IU/L | BUN (24 h): 15.4 mg/dL | CRE (24 h): 0.1 mg/dL | Ca (24 h): 10.4 mg/dL | Cl (24 h): 106.8 meq/L | DBIL (24 h): 0.002 mg/dL | GLC (24 h): 195.4 mg/dL | IP (24 h): 8.1 mg/dL | K (24 h): 4.3 meq/L | LDH (24 h): 174.8 IU/L | Na (24 h): 142 meq/L | PL (24 h): 135.2 mg/dL | RALB (24 h): 2.9 g/dL | TBIL (24 h): 0.016 mg/dL | TC (24 h): 75.2 mg/dL | TG (24 h): 87.6 mg/dL | TP (24 h): 5.4 g/dL | gamma-GTP (24 h): 1.2 IU/L
